# Assay results as given in patent US9902964B2, “Growth arrested cells useful for producing compounds” (priority 2014, dated 2018).
# What was measured:
# Assay type in all cases: cell-based, Escherichia coli
# [1] = test system: HipA-arrested cells (MG1655/pHipA); experiment: β-Lactam susceptibility of HipA-arrested cells (optical density, lysis)
# Method: Biological triplicates of MG1655/pHipA cells were inoculated into 30 ml of MOPS-M9 medium and grown at 37° C. until an OD600 of 0.5 was reached. aTc was added to reach 50 ng/ml, and the cultures were split into two 12-ml subcultures. At 2.5 h later, carbenicillin (100 μg/ml) was added to one subculture and optical densities were measured. For comparison of the levels of β-lactam tolerance of WT and ΔrelA cultures expressing HipA, biological triplicates of the WT/pHipA and ΔrelA/pHipA strains were inoculated into 5 ml of MOPS-M9 medium and grown at 37° C. HipA expression was induced with 50 ng/ml aTc when the OD600 reached ˜0.3. Ampicillin was added to reach a final concentration of 100 μg/ml 1.5 h later, and optical densities were monitored.
# [2] = test system: persister cells of MG1655; experiment: Antibiotic resistance of naturally occurring persister cells isolated by ofloxacin treatment (CFU count); conditions: chloramphenicol 30 μg/ml, ampicillin 100 μg/ml, 4 h at 37° C.; P=0.3, unpaired t test
# Method: Persister cells were prepared in triplicate by ofloxacin treatment of stationary-phase cultures based on a previously described protocol (32). Overnight cultures of MG1655 cells grown in LB medium for 20 h were treated with ofloxacin for 3 h at 37° C., after which cells were pelleted, washed with fresh LB medium, pelleted again, and resuspended in antibiotic-free LB medium. After resuspension, chloramphenicol (30 μg/ml) and ampicillin (100 μg/ml) were added singly or in combination, and cells were incubated at 37° C. with shaking for 4 h. Samples were removed, pelleted once, washed with LB medium, resuspended, and serially diluted. A 10-μl volume of the serial dilutions was spot plated on an LB agar plate, which was incubated at 37° C. overnight. Colonies were counted the following day.
# [3] = test system: ppGpp concentration within HipA-arrested cells; experiment: ppGpp measurements performed with HPLC in HipA-arrested cells; conditions: chloramphenicol treatment, within 15 min
# Source text: ppGpp and nucleotides were extracted from cells grown on agar-supported nylon filters, following a protocol inspired by the rapid-quenching and metabolite extraction approach described in reference 25. We adopted this technique to avoid perturbing ppGpp levels with lengthy cell harvesting and extraction procedures, as the enzymes that generate and degrade ppGpp are known to respond rapidly to external conditions (26). Briefly, cells grown in liquid medium to an optical density at 600 nm (OD600) of ˜0.1 were transferred to nylon filters and adhered to solid agar plates containing our modified MOPS-M9 medium. […] Concentrations of ppGpp and GTP were measured using anion-exchange chromatography and a Partisil 5 Sax Rac II column (catalog no. 422-227; Hichrom Limited), with a silica Nova-Pak guard column (catalog no. WAT046845; Whatman) per a protocol described previously (26) and modified for brevity. […] The column temperature was maintained at 50° C., and absorbance was monitored at 254 nm. […]
# Cultures of MG1655/pHipA cells were inoculated into 40 ml of MOPS-M9 medium in 250-ml unbaffled Erlenmeyer flasks and incubated with shaking at 37° C. […] Samples were processed per a previously published protocol (27) using Picogreen (Invitrogen) for DNA quantification. […] Fluorescence was measured using a Spectromax M2 reader.
# [4] = test system: MG1655/pHipA cells; experiment: Measurement of DNA and RNA concentrations in HipA-arrested cells; conditions: 30 μg/ml chloramphenicol added 1 h after HipA induction
# Method: Cultures of MG1655/pHipA cells were inoculated into 40 ml of MOPS-M9 medium in 250-ml unbaffled Erlenmeyer flasks and incubated with shaking at 37° C. When the OD600 reached ˜0.3, aTc was added to reach 50 ng/ml. After 1 h of HipA induction, a sample was removed for DNA or RNA extraction, the cultures were split into two 15-ml cultures, and 30 μg/ml chloramphenicol was added to one of the cultures. For comparison of DNA and RNA synthesis results in WT and ΔrelA strains expressing HipA, biological triplicates of the WT/pHipA and ΔrelA/pHipA strains were grown in MOPS-M9 medium at 37° C. to an OD600 of 0.2 to 0.4, at which point HipA expression was induced by addition of aTc to 50 ng/ml. Samples were processed per a previously published protocol (27) using Picogreen (Invitrogen) for DNA quantification. RNA was quantified by measurement of fluorescence using the Quant-It assay (catalog no. Q33140; Invitrogen) following the manufacturer's instructions. Fluorescence was measured using a Spectromax M2 reader.
smiles,measurement,setting,value
CC1(C)S[C@@H]2[C@H](NC(=O)[C@H](N)c3ccccc3)C(=O)N2[C@H]1C(=O)O [ampicillin],ampicillin resistance of ΔrelA strain expressing HipA,"[1]; ampicillin 100 μg/ml, ΔrelA/pHipA strain, FIG. 9D",did not confer ampicillin resistance
same,reduction in CFU of isolated persisters,[2],41%±13%
CC1(C)S[C@@H]2[C@H](NC(=O)C(C(=O)O)c3ccccc3)C(=O)N2[C@H]1C(=O)O (stereo partly drawn) [carbenicillin],lysis of HipA-arrested WT cells,"[1]; carbenicillin 100 μg/ml, HipA induced with 50 ng/ml aTc, FIG. 9C",did not induce lysis
O=C(N[C@H](CO)[C@H](O)c1ccc([N+](=O)[O-])cc1)C(Cl)Cl [chloramphenicol],decrease of ppGpp concentration within HipA-arrested cells,[3],60% (±20%)
same,inhibition of DNA synthesis in HipA-arrested cells,[4]; FIG. 9A,relieved inhibition
same,inhibition of RNA synthesis in HipA-arrested cells,[4]; FIG. 9B,relieved inhibition
